In general, IC50 refers to the point on the concentration scale where inhibition reaches its midpoint.

We go through 39 molecules from patent US9199962B2, “Substituted azaheterocycles for the treatment of cancer” (Merck Patent GmbH, priority 2011, dated 2015).

The target in the assay is T1, GST-FAK (N-terminal GST fusion with truncated human FAK (376-1052 (end) amino acids)) (Homo sapiens, UniProt Q05397).
T1 construct: truncated human FAK (376-1052 (end) amino acids)
Description: Biochemical enzyme assay for FAK activity (Caliper LC3000 mobility shift). As to conditions: 100 uM ATP. In outline: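 Inhibitor dose series in DMSO were incubated 90 min at 25 °C with truncated GST-tagged human FAK (0.067 ng/µl) and FITC-labelled peptide substrate (1 µM), with ATP at 100 µM and FERM peptide at 1 mM (pH 7.5 HEPES). After EDTA quench, phosphorylated and unphosphorylated peptides were resolved electrophoretically. Percent conversion was fitted for IC50.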

Read-outs that look alike come from different tables or passages of the source.

T1 sequence (Q05397 376-1052): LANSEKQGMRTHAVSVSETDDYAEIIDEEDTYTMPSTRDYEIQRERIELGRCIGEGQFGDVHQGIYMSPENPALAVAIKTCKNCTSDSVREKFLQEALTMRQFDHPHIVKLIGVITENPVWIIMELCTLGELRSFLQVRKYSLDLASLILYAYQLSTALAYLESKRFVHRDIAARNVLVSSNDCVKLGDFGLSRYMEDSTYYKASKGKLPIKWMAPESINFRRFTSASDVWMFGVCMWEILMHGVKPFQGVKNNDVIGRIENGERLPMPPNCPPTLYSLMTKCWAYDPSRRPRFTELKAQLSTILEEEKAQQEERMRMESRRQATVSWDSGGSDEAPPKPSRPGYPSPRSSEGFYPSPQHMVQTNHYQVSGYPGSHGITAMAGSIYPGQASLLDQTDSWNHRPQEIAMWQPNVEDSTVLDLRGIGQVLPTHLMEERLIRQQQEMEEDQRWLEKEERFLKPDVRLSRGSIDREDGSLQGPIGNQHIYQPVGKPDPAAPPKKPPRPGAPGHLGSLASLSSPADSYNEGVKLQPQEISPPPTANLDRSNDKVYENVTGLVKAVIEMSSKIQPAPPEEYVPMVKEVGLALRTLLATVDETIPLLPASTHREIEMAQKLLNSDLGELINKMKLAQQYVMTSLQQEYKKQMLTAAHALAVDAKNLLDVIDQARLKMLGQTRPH

Turning to `CNC[C@@H](Nc1ccnc(-c2cccnc2N)n1)c1ccccc1` [Compound 146, (S)-N1-[2-(2-Amino-pyridin-3-yl)-pyrimidin-4-yl]-N2-methyl-1-phenyl-ethane-1,2-diamine], the IC50 (Table 3, read-out: FAK IC50) was more than 10000 nM. Take `CNC[C@H](Nc1ccnc(-c2cccnc2N)n1)c1ccccc1` [Compound 147, (R)-N1-[2-(2-Amino-pyridin-3-yl)-pyrimidin-4-yl]-N2-methyl-1-phenyl-ethane-1,2-diamine]: the 50% inhibitory concentration (IC50) (Table 3, read-out: FAK IC50) is more than 10000 nM. For `N#Cc1cncc(-c2nccc(NCc3ccc(F)cc3F)n2)c1` [Compound 180, 5-[4-[(2,4-difluorophenyl)methylamino]pyrimidin-2-yl]pyridine-3-carbonitrile], under “Table 4, read-out: IC50 FAK”, the 50% inhibitory concentration (IC50) is 100 to 1000 nM. Same read-out and setting: under `CS(=O)(=O)n1cc(Nc2ccnc(-c3cncc(C(F)(F)F)c3)n2)cn1` [Compound 182, N-(1-methylsulfonylpyrazol-4-yl)-2-[5-(trifluoromethyl)-3-pyridyl]pyrimidin-4-amine] stands 100 to 1000 nM. As for `Cc1ccccc1CNc1ccnc(-c2cncc(C(F)(F)F)c2)n1` [Compound 186, (2-Methyl-benzyl)-[2-(5-trifluoromethyl-pyridin-3-yl)-pyrimidin-4-yl]-amine], for the setting “Table 5, read-out: FAK IC50”, the IC50 fell in the range of 100 to 1000 nM. `COc1cncc(-c2nccc(NCCc3ccccc3)n2)c1` [Compound 187, [2-(5-Methoxy-pyridin-3-yl)-pyrimidin-4-yl]-phenethyl-amine]: for the setting “Table 5, read-out: FAK IC50”, the 50% inhibitory concentration (IC50) was more than 10000 nM. Turning to `CC(=O)NCCNC(=O)c1cc(NCc2ncccc2F)nc(-c2cncc(C(F)(F)F)c2)n1` [Compound 189, 6-[(3-Fluoro-pyridin-2-ylmethyl)-amino]-2-(5-trifluoromethyl-pyridin-3-yl)-pyrimidine-4-carboxylic acid (2-acetylamino-ethyl)-amide], the IC50 (Table 5, read-out: FAK IC50) fell in the range of 100 to 1000 nM. Still for that read-out and setting: under `NC(=O)CNC(=O)c1cc(NCc2ncccc2F)nc(-c2cncc(C(F)(F)F)c2)n1` [Compound 190, 6-[(3-Fluoro-pyridin-2-ylmethyl)-amino]-2-(5-trifluoromethyl-pyridin-3-yl)-pyrimidine-4-carboxylic acid carbamoylmethyl-amide] stands 100 to 1000 nM; under `FC(F)(F)c1cccc(CCNc2ccnc(-c3cncc(C(F)(F)F)c3)n2)c1` [Compound 191, [2-(3-Trifluoromethyl-phenyl)-ethyl]-[2-(5-trifluoromethyl-pyridin-3-yl)-pyrimidin-4-yl]-amine], 1000 to 10000 nM. On the same count and under the same terms, under `COc1cncc(-c2nccc(NCCc3ccc(F)cc3)n2)c1` [Compound 192, [2-(4-Fluoro-phenyl)-ethyl]-[2-(5-methoxy-pyridin-3-yl)-pyrimidin-4-yl]-amine] stands 1000 to 10000 nM; under `COc1cncc(-c2nccc(NCc3ccccc3-c3ccccc3S(C)(=O)=O)n2)c1` [Compound 193, (2′-Methanesulfonyl-biphenyl-2-ylmethyl)-[2-(5-methoxy-pyridin-3-yl)-pyrimidin-4-yl]-amine], more than 10000 nM.

Take `COc1cncc(-c2nccc(NCCc3cccc(C(F)(F)F)c3)n2)c1` [Compound 194, [2-(5-Methoxy-pyridin-3-yl)-pyrimidin-4-yl]-[2-(3-trifluoromethyl-phenyl)-ethyl]-amine]: the half-inhibitory concentration (IC50) (Table 5, read-out: FAK IC50) is more than 10000 nM. In the case of `Fc1ccc(CCNc2ccnc(-c3cncc(C(F)(F)F)c3)n2)cc1` [Compound 195, [2-(4-Fluoro-phenyl)-ethyl]-[2-(5-trifluoromethyl-pyridin-3-yl)-pyrimidin-4-yl]-amine], the IC50 (Table 5, read-out: FAK IC50) lay in the range of 100 to 1000 nM. Consider `CS(=O)(=O)c1ccccc1-c1ccccc1CNc1ccnc(-c2cncc(C(F)(F)F)c2)n1` [Compound 196, (2′-Methanesulfonyl-biphenyl-2-ylmethyl)-[2-(5-trifluoromethyl-pyridin-3-yl)-pyrimidin-4-yl]-amine], for which the 50% inhibitory concentration (IC50) (Table 5, read-out: FAK IC50) was 1000 to 10000 nM. On the same count and under the same terms, under `CN1CCCC1CCNc1ccnc(-c2cncc(C(F)(F)F)c2)n1` (stereo not drawn) [Compound 197, [2-(1-Methyl-pyrrolidin-2-yl)-ethyl]-[2-(5-trifluoromethyl-pyridin-3-yl)-pyrimidin-4-yl]-amine] stands more than 10000 nM; under `FC(F)(F)c1cncc(-c2nccc(NCCc3ccccc3Cl)n2)c1` [Compound 198, [2-(2-Chloro-phenyl)-ethyl]-[2-(5-trifluoromethyl-pyridin-3-yl)-pyrimidin-4-yl]-amine], 1000 to 10000 nM; under `COc1cncc(-c2nccc(NCCN3CCCC3=O)n2)c1` [Compound 199, 1-{2-[2-(5-Methoxy-pyridin-3-yl)-pyrimidin-4-ylamino]-ethyl}-pyrrolidin-2-one], more than 10000 nM. Same read-out and setting: under `O=C1CCCN1CCNc1ccnc(-c2cncc(C(F)(F)F)c2)n1` [Compound 200, 1-{2-[2-(5-Trifluoromethyl-pyridin-3-yl)-pyrimidin-4-ylamino]-ethyl}-pyrrolidin-2-one] stands more than 10000 nM; under `COc1ccccc1CCNc1ccnc(-c2cncc(C(F)(F)F)c2)n1` [Compound 201, [2-(2-Methoxy-phenyl)-ethyl]-[2-(5-trifluoromethyl-pyridin-3-yl)-pyrimidin-4-yl]-amine], 1000 to 10000 nM. The same measure, in the same setting: the same measure for `COc1cncc(-c2nccc(NCCc3ccccc3OC)n2)c1` [Compound 202, [2-(2-Methoxy-phenyl)-ethyl]-[2-(5-methoxy-pyridin-3-yl)-pyrimidin-4-yl]-amine]: 1000 to 10000 nM. With `COc1cncc(-c2nccc(NCCc3ccccc3Cl)n2)c1` [Compound 203, [2-(2-Chloro-phenyl)-ethyl]-[2-(5-methoxy-pyridin-3-yl)-pyrimidin-4-yl]-amine], the IC50 (Table 5, read-out: FAK IC50) is 1000 to 10000 nM.

In the case of `COc1cncc(-c2nccc(NCc3ccc(F)cc3C(F)(F)F)n2)c1` [Compound 204, (4-Fluoro-2-trifluoromethyl-benzyl)-[2-(5-methoxy-pyridin-3-yl)-pyrimidin-4-yl]-amine], under “Table 5, read-out: FAK IC50”, the concentration for half-maximal inhibition (IC50) was less than 100 nM.

`Fc1ccccc1CNc1ccnc(-c2cccnc2F)n1` [Compound 205, (2-Fluoro-benzyl)-[2-(2-fluoro-pyridin-3-yl)-pyrimidin-4-yl]-amine]: where the note is “Table 5, read-out: FAK IC50”, the IC50 is 1000 to 10000 nM.

On to `Cc1cc(F)ncc1-c1nccc(NCc2ccccc2F)n1` [Compound 206, (2-Fluoro-benzyl)-[2-(6-fluoro-4-methyl-pyridin-3-yl)-pyrimidin-4-yl]-amine], for which the IC50 (Table 5, read-out: FAK IC50) is more than 10000 nM. Still for that read-out and setting: under `Fc1ccc(-c2nccc(NCc3ccccc3F)n2)cn1` [Compound 207, (2-Fluoro-benzyl)-[2-(6-fluoro-pyridin-3-yl)-pyrimidin-4-yl]-amine] stands more than 10000 nM; under `Fc1cccnc1CNc1ccnc(-c2cncc(C(F)(F)F)c2)n1` [Compound 208, (3-Fluoro-pyridin-2-ylmethyl)-[2-(5-trifluoromethyl-pyridin-3-yl)-pyrimidin-4-yl]-amine], 100 to 1000 nM. The same measure, in the same setting: under `Fc1cnc(CNc2ccnc(-c3cncc(C(F)(F)F)c3)n2)c(F)c1` [Compound 209, (3,5-Difluoro-pyridin-2-ylmethyl)-[2-(5-trifluoromethyl-pyridin-3-yl)-pyrimidin-4-yl]-amine] stands less than 100 nM; under `Fc1ccc(CNc2ccnc(-c3cccnc3)n2)c(F)c1` [Compound 210, (2,4-Difluoro-benzyl)-(2-pyridin-3-yl-pyrimidin-4-yl)-amine], 100 to 1000 nM. `Cc1cc(F)ncc1-c1nccc(NCc2ccc(F)cc2F)n1` [Compound 211, (2,4-Difluoro-benzyl)-[2-(6-fluoro-4-methyl-pyridin-3-yl)-pyrimidin-4-yl]-amine]: the IC50 (Table 5, read-out: FAK IC50) is more than 10000 nM. On the same count and under the same terms, the same measure for `Fc1ccc(CNc2ccnc(-c3cccnc3F)n2)c(F)c1` [Compound 212, (2,4-Difluoro-benzyl)-[2-(2-fluoro-pyridin-3-yl)-pyrimidin-4-yl]-amine]: 1000 to 10000 nM. Still for that read-out and setting: the same measure for `N#Cc1cncc(-c2nccc(NCc3ncccc3F)n2)c1` [Compound 213, 5-{4-[(3-Fluoro-pyridin-2-ylmethyl)-amino]-pyrimidin-2-yl}-nicotinonitrile]: 1000 to 10000 nM; for `COc1cncc(-c2nccc(NCc3ncccc3F)n2)c1` [Compound 214, (3-Fluoro-pyridin-2-ylmethyl)-[2-(5-methoxy-pyridin-3-yl)-pyrimidin-4-yl]-amine]: 100 to 1000 nM. Same read-out and setting: under `N#Cc1cncc(-c2ncc(C(F)(F)F)c(NCc3ccc(F)cc3F)n2)c1` [Compound 215, 5-[4-(2,4-Difluoro-benzylamino)-5-trifluoromethyl-pyrimidin-2-yl]-nicotinonitrile] stands more than 10000 nM; under `COc1cncc(-c2nccc(NCc3ccc4[nH]c(=O)[nH]c4c3)n2)c1` [Compound 216, 5-{[2-(5-Methoxy-pyridin-3-yl)-pyrimidin-4-ylamino]-methyl}-1,3-dihydro-benzoimidazol-2-one], more than 10000 nM. On to `Fc1ccc(CNc2ccnc(-c3ccc(F)nc3)n2)c(F)c1` [Compound 217, (2,4-Difluoro-benzyl)-[2-(6-fluoro-pyridin-3-yl)-pyrimidin-4-yl]-amine], for which the IC50 (Table 5, read-out: FAK IC50) was more than 10000 nM. On the same count and under the same terms, the same measure for `COc1cncc(-c2nccc(NCc3cc[nH]n3)n2)c1` [Compound 218, [2-(5-Methoxy-pyridin-3-yl)-pyrimidin-4-yl]-(1H-pyrazol-3-ylmethyl)-amine]: 1000 to 10000 nM; for `FC(F)(F)c1cncc(-c2nccc(NCc3ccccn3)n2)c1` [Compound 219, Pyridin-2-ylmethyl-[2-(5-trifluoromethyl-pyridin-3-yl)-pyrimidin-4-yl]-amine]: 100 to 1000 nM. Take `N#Cc1cncc(-c2nccc(NCc3ccccn3)n2)c1` [Compound 220, 5-{4-[(Pyridin-2-ylmethyl)-amino]-pyrimidin-2-yl}-nicotinonitrile]: the IC50 (Table 5, read-out: FAK IC50) lay in the range of 1000 to 10000 nM. Consider `COc1cncc(-c2nccc(NCc3csc(-c4ccccc4)n3)n2)c1` [Compound 221, [2-(5-Methoxy-pyridin-3-yl)-pyrimidin-4-yl]-(2-phenyl-thiazol-4-ylmethyl)-amine], for which the IC50 (Table 5, read-out: FAK IC50) is more than 10000 nM.
